Measured values from US20250099532A1, “METHODS OF TREATMENT USING OXYTOCIN” (Belnap Pharmaceuticals, LLC, priority 2022, published 2025).

Assays:
patients = test: Clinical observations in treated patients; type: in vivo, human
Excerpt: It is imperative that patients get as quickly to the positive zone as possible. […] Anxiety is a major contributor to chronic inflammation, which decreases BDNF and the continued loss of synaptic connections.

depression = details: after a single administration; cited from earlier work

Compound | duration of positive effects of a series of infusions (patients; IV ketamine alone, series of infusions (e.g., six)) | relief of anxiety compared with depression (patients; patients, ketamine treatments alone) | begin of antidepressant effects post-infusion (depression) [min] | loss of superiority to placebo post-infusion (depression) [days] | peak of antidepressant effects (depression) | time the patient continued to stay sober (patients; Patient 3 (alcoholic), patient attributes it to the addition of oxytocin) [months] | response of the patient's anxiety with oxytocin compared with ketamine treatment alone (patients; Patient 10 (PTSD, Depression, and Anxiety)) | recovery from anxiety compared with ketamine infusions alone (patients; patients, addition of oxytocin treatment) | ketamine experience when oxytocin is administered prior to the ketamine treatment (patients; patients, oxytocin before ketamine) | recovery from depression and anxiety compared with ketamine alone (patients; patients, oxytocin prior to ketamine treatment)
CNC1(c2ccccc2Cl)CCCCC1=O (racemic) [ketamine, Ketamine (racemic)] | one month to several (e.g., 4-6) months | a lot slower | 40 | 10 to 12 | approximately 24 h |  |  |  |  | 
CC[C@H](C)[C@@H]1NC(=O)[C@H](Cc2ccc(O)cc2)NC(=O)[C@@H](N)CSSC[C@@H](C(=O)N2CCC[C@H]2C(=O)N[C@@H](CC(C)C)C(=O)NCC(N)=O)NC(=O)[C@H](CC(N)=O)NC(=O)[C@H](CCC(N)=O)NC1=O [oxytocin] |  |  |  |  |  | 18 | much quicker | much quicker recovery | much more calm and euphoric ketamine experience | recovering much more quickly
